Results taken from patent US9260504B2, “N- and C-terminal substituted antagonistic analogs of GH-RH” (University of Miami, priority 2008, dated 2016).

Key:
Assay type in all cases: in vivo
[1] = test system: H-460 human non-small cell lung cancer; assay: H-460 human non-SCLC xenografts in nude mice, Experiment 2; conditions: 5 μg/day s.c.; for Tumor growth after 4 weeks (%): 28 days, means±S.E.; for Inhibition (%): after 4 weeks
Description: Male nude mice were implanted s.c. with 3 mm^3 pieces of H-460 human non-SCLC tumor tissue on both flanks. When tumors had grown to a mean volume of approximately 90 mm^3, the mice were randomly assigned into 12 experimental groups with 8 to 10 animals in each group and received single daily injections for 28 days as follows: 1. Control (vehicle solution); 2. JMR-132 (10 μg/day s.c.); 3. Peptide 11109 (5 μg/day s.c.); 4. Peptide 11113 (5 μg/day s.c.); 5. Peptide 11119 (5 μg/day s.c.); 6. Peptide 11209 (5 μg/day s.c.); 7. Peptide 11313 (5 μg/day s.c.); 8. Peptide 11408 (5 μg/day s.c.); 9. Peptide 11435 (5 μg/day s.c.); 10. Peptide 11459 (5 μg/day s.c.); 11. Peptide 11469 (5 μg/day s.c.); 12. Peptide 11491 (5 μg/day s.c.). Tumor volumes were measured once a week. The experiment was ended on day 28 by sacrificing the mice under Isoflurane anesthesia. Resulting tumors were cleaned, weighed, and snap-frozen until further analyses. Statistical analyses of the measurement results were done by two-tailed t-test, p<0.05 being considered significant. Data are presented as the means±S.E.

[2] = test system: PC-3 human hormone-independent prostate cancer; assay: PC-3 human prostate cancer xenografts in nude mice, Experiment 3; conditions: 2 μg/day s.c., 28 days
Description: (§1) Male nude mice were implanted s.c. with 3 mm^3 pieces of PC-3 human hormone-independent prostate cancer tissue on both flanks. When tumors reached a volume of approximately 50 mm^3, the mice were divided into 12 experimental groups with 8 to 10 animals in each group and received single daily injections for 28 days as follows: 1. Control (vehicle solution); 2. JMR-132 (10 μg/day s.c.); 3. Peptide 11113 (2 μg/day s.c.); 4. Peptide 11119 (2 μg/day s.c.); 5. Peptide 11209 (2 μg/day s.c.); 6. Peptide 11313 (2 μg/day s.c.); 7. Peptide 11408 (2 μg/day s.c.); 8. Peptide 11435 (2 μg/day s.c.); 9. Peptide 11457 (2 μg/day s.c.); 10. Peptide 11459 (2 μg/day s.c.); 11. Peptide 11469 (2 μg/day s.c.); 12. Peptide 11491 (2 μg/day s.c.).
(§2) Tumor volumes were measured once a week. The experiment was ended on day 28 by sacrificing the mice under Isoflurane anesthesia. Resulting tumors were cleaned, weighed, and snap-frozen until further analyses. Statistical analyses of the measurement results were done by two-tailed t-test, p<0.05 being considered significant.

[3] = test system: PC-3 human hormone-independent prostate cancer; assay: PC-3 human prostate cancer xenografts in nude mice, Experiment 4; conditions: for Tumor growth after 28 days (%) / Tumor growth after 46 days (%) / Inhibition (%): 2 μg/day s.c.; for Inhibitory effect on PC-3 tumors compared with reference peptide JMR-132: 2 μg/day vs JMR-132 10 μg/day, after 46 days of treatment
Description: as §1, §2
All experimental details of Experiment 4 are the same as for Experiment 3, with the following difference. When tumors reached a volume of approximately 50 mm^3, the mice were divided into 11 experimental groups with 8 to 10 animals in each group and received single daily injections for 46 days as follows: 1. Control (vehicle solution); 2. JMR-132 (10 μg/day s.c.); 3. Peptide 11123 (2 μg/day s.c.); 4. Peptide 11125 (2 μg/day s.c.); 5. Peptide 11213 (2 μg/day s.c.); 6. Peptide 11433 (2 μg/day s.c.); 7. Peptide 11473 (2 μg/day s.c.); 8. Peptide 11485 (2 μg/day s.c.); 9. Peptide 11497 (2 μg/day s.c.); 10. Peptide 11499 (2 μg/day s.c.); 11. Peptide 11521 (2 μg/day s.c.). Tumor volumes were measured once a week. The experiment was ended on day 46 by sacrificing the mice under Isoflurane anesthesia. Resulting tumors were cleaned, weighed, and snap-frozen until further analyses. Statistical analyses of the measurement results were done by two-tailed t-test, p<0.05 being considered significant.

[4] = test system: H-460 human non-small cell lung cancer; assay: H-460 human non-SCLC xenografts in nude mice, Experiment 3; conditions: 28 days; for Tumor growth inhibition after 4 weeks (%): 5 μg/day s.c.; for Inhibition of H-460 lung tumor growth compared with reference peptide JMR-132: 5 μg/day vs JMR-132 10 μg/day
Description: Male nude mice were implanted s.c. with 3 mm^3 pieces of H-460 human non-SCLC tumor tissue on both flanks. When tumors had grown to a mean volume of approximately 90 mm^3, the mice were randomly assigned into 8 experimental groups with 8 to 10 animals in each group and received single daily injections for 28 days as follows: 1. Control (vehicle solution); 2. JMR-132 (10 μg/day s.c.); 3. Peptide 11123 (5 μg/day s.c.); 4. Peptide 11125 (5 μg/day s.c.); 5. Peptide 11307 (5 μg/day s.c.); 6. Peptide 11317 (5 μg/day s.c.); 7. Peptide 11473 (5 μg/day s.c.); 8. Peptide 11485 (5 μg/day s.c.). Tumor volumes were measured once a week. The experiment was ended on day 28 by sacrificing the mice under Isoflurane anesthesia. Resulting tumors were cleaned, weighed, and snap-frozen until further analyses. Statistical analyses of the measurement results were done by two-tailed t-test, p<0.05 being considered significant.

| Substance | Tumor growth after 4 weeks (%) [1] [%] | Inhibition (%) [1] [%] | Tumor growth inhibition after 4 weeks (%) [2] [%] | Tumor growth after 28 days (%) [3] [%] | Tumor growth after 46 days (%) [3] [%] | Inhibitory effect on PC-3 tumors compared with reference peptide JMR-132 [3] | Inhibition (%) ([3]; after 28 days) | Inhibition (%) ([3]; after 46 days) | Tumor growth inhibition after 4 weeks (%) [4] [%] | Inhibition of H-460 lung tumor growth compared with reference peptide JMR-132 [4] |
| --- | --- | --- | --- | --- | --- | --- | --- | --- | --- | --- |
| [(PhAc^0-Ada)-Tyr^1, D-Arg^2, Cpa^6, Ala^8, Har^9, Tyr(Me)^10, His^11, Orn^12, Abu^15, His^20, Orn^21, Nle^27, D-Arg^28, Har^29]hGH-RH(1-29)NH2 [Peptide 11459] | 2418 ± 923 | 69.36 | 53.60 | – | – | – | – | – | – | – |
| [PhAc^0-Tyr^1, D-Arg^2, Cpa^6, Ala^8, Har^9, Tyr(Me)^10, His^11, Abu^15, His^20, Nle^27, D-Arg^28, Har^29-Apa^30]hGH-RH(1-29)NH2 [Peptide 11209] | 6377 ± 2477 | 19.21 | 48.04 | – | – | – | – | – | – | – |
| [(CH3—(CH2)10—CO-Ada)^0-Tyr^1, D-Arg^2, Cpa^6, Ala^8, Har^9, Tyr(Me)^10, His^11, Abu^15, His^20, Nle^27, D-Arg^28, Har^29]hGH-RH(1-29)NH2 [Peptide 11125] | – | – | – | 424 | 1009 | had a more potent inhibitory effect than reference peptide JMR-132 | 68.97 | 69.69 | 33.03 | more potently inhibited the growth of H-460 lung tumors than the reference peptide JMR-132 |
| [(Dca-Ada)^0-Tyr^1, D-Arg^2, Cpa^6, Ala^8, Har^9, Tyr(Me)^10, His^11, Abu^15, His^20, Nle^27, D-Arg^28, Har^29]hGH-RH(1-29)NH2 [Peptide 11123] | – | – | – | 786 | 1849 | – | 42.57 | 44.48 | 35.74 | more potently inhibited the growth of H-460 lung tumors than the reference peptide JMR-132 |
| [(Dca-Ada)^0-Tyr^1, D-Arg^2, (Phe(F)5)^6, Ala^8, Har^9, Tyr(Me)^10, His^11, Orn^12, Abu^15, His^20, Orn^21, Nle^27, D-Arg^28, Har^29]hGH-RH(1-29)NH2 [Peptide 11491] | 1926 ± 473 | 75.60 | 72.43 | – | – | – | – | – | – | – |
| [(Ac-Ada)^0-Tyr^1, D-Arg^2, Cpa^6, Ala^8, Har^9, Tyr(Me)^10, His^11, Orn^12, Abu^15, His^20, Orn^21, Nle^27, D-Arg^28, Har^29]hGH-RH(1-29)NH2 [Peptide 11435] | 4170 ± 2064 | 47.17 | 75.11 | – | – | – | – | – | – | – |
| [(Ac-Ada-D-Phe)^0-Tyr^1, D-Arg^2, Cpa^6, Ala^8, Har^9, Tyr(Me)^10, His^11, Abu^15, His^20, Nle^27, D-Arg^28, Har^29]hGH-RH(1-29)NH2 [Peptide 11119] | 5254 ± 1524 | 33.44 | 32.03 | – | – | – | – | – | – | – |
| [(PhAc^0-Ada)-Tyr^1, D-Arg^2, Cpa^6, Ala^8, Har^9, Tyr(Me)^10, His^11, Orn^12, Abu^15, His^20, Orn^21, Nle^8, D-Arg^28, Har^29-Ada^30]hGH-RH(1-29)NH2 [Peptide 11473] | – | – | – | 442 | 1072 | had a more potent inhibitory effect than reference peptide JMR-132 | 67.68 | 67.80 | 54.64 | more potently inhibited the growth of H-460 lung tumors than the reference peptide JMR-132 |
